# Assay: In vitro stability in mice (mouse liver microsome assay)
# Assay type: in vitro ADME
# Conditions: liver microsomes, pH 7.4, read-out: t1/2 in vitro
# Experimental: The reaction was stopped by an aliquot of 200 μL of ice-cold acetonitrile after 60 min. After centrifugation at 14 000×g for 10 min, a 5 μL aliquot of the supernatant was injected into a UHPLC-[…]. […] A trace amount of the subsequent glucuronide of the demethylated metabolite was also seen in the serum, as it could be promptly excreted from the liver to the bile, once generated, and can then undergo enterohepatic circulation through which the demethylated product is reabsorbed to the circulation. This could also serve as an explanation for the increased demethylated metabolite at the last time point.
structure (smiles),measurement,value
"CCCn1c(=O)c2cccc(F)c2n2c(SC)nnc12 [compound 145, 9-fluoro-1-(methylthio)-4-propyl-[1,2,4]triazolo[4,3-a]quinazolin-5(4H)-one]",half-life at 20 µM,21.8 ± 6.03 min
